The text below walks through data of patent US8664199B2, “Method and system for reversal of interactions between hydrophobically modified biopolymers and vesicles or cell membranes” (University of Maryland, College Park, priority 2010, dated 2014).

The test system of series [1] is human heparinized blood. The series can be described thus: Visual observation / vial inversion of blood gelled by hm-chitosan. The series is classed as cell-based. The conditions noted are these: 3 wt % α-CD added to blood gel formed with 0.25 wt % hm-chitosan. How it is done:
(§1) 5 human subjects volunteered to have 20 mL of blood drawn by a registered nurse at the UMD School of Medicine. Subjects were healthy adults ranging age from 20 to 40 years of age (4 males, 1 female). 10 mL intervals of blood were drawn into Becton Dickinson Vacutainers® containing 143 USP units of sodium heparin. The protocol was approved by the Institutional Research Board (IRB) at UMD.
FIG. 3(a) is a photograph of human heparinized blood gelled by 0.25 wt % hm-chitosan. […] Note that this sample […] hold its own weight upon vial inversion.

The subject of series [2] is human heparinized blood. The series can be described thus: Dynamic rheology of hm-chitosan blood gel. The series is classed as cell-based. The conditions noted are these: 3 wt % α-CD, 0.25 wt % hm-chitosan blood gel, 37° C. How it is done:
as §1
(§2) Steady and dynamic rheological experiments were performed on a […] AR2000 stress-controlled rheometer. A cone-and-plate geometry of 40 mm diameter and 4° cone angle was used and samples were run at the physiological temperature of 37° C. Dynamic frequency spectra were obtained in the linear viscoelastic regime of the samples, as determined from dynamic strain sweep experiments.

The conditions of series [3]: general statement, no test described; cited from earlier work.
Series [4] can be described thus: Dynamic rheology of hm-chitosan + vesicle mixtures. The series is classed as physicochemical. The conditions noted are these: 28.6 mM cyclodextrin; hm-chitosan 0.238 wt %, vesicles 0.952 wt %.
Text: (§3) The surfactant system employed was a mixture of the cationic surfactant, cetyl trimethylammonium tosylate (CTAT), and the anionic surfactant, sodium dodecyl benzene sulfonate (SDBS). The surfactants were purchased from Aldrich, and all solutions were made using distilled-deionized water. The phase diagram for CTAT/SDBS mixtures has been reported previously.^31 To form vesicles, CTAT and SDBS were mixed at a weight ratio of 70/30, respectively, at a combined 2 wt % concentration in water. The mixture was stirred overnight to ensure complete dissolution and equilibration of the vesicles prior to experiments.
as §2
However, at practical time scales, the hm-chitosan+vesicle+α-CD mixture behaves as a freely flowing liquid.

A short description of series [5]: Steady shear rheology of hm-chitosan + vesicle mixtures. The following applies: for zero-shear viscosity: hm-chitosan (benz-C18, 1.5% modified) 0.238 wt %, 37° C.; for zero-shear viscosity / viscosity drop on addition of cyclodextrin: vesicles 0.952 wt %; for viscosity drop on addition of cyclodextrin: 28.6 mM vs 0 mM cyclodextrin, hm-chitosan 0.238 wt %; for reversal of gelation of vesicles by hm-chitosan: hm-chitosan and vesicle mixtures. The series is classed as physicochemical.
Text: as §3, §2
The concentrations of hm-chitosan and vesicles were held constant at 0.238 wt % and 0.952 wt %, respectively, in both samples. One sample contained 0 mM α-CD (open diamonds) and the other contained 28.6 mM α-CD (open circles).

“Also recorded” adds a separate entry of the source.

As for `OC[C@H]1O[C@@H]2O[C@H]3[C@H](O)[C@@H](O)[C@@H](O[C@H]4[C@H](O)[C@@H](O)[C@@H](O[C@H]5[C@H](O)[C@@H](O)[C@@H](O[C@H]6[C@H](O)[C@@H](O)[C@@H](O[C@H]7[C@H](O)[C@@H](O)[C@@H](O[C@H]1[C@H](O)[C@H]2O)O[C@@H]7CO)O[C@@H]6CO)O[C@@H]5CO)O[C@@H]4CO)O[C@@H]3CO` [α-CD, α-cyclodextrin], the “reversal of blood gelation (visual observation)” value in the series on human heparinized blood [1] is “quickly reverse the gelling and convert the sample into a thin, flowing liquid; also recorded: instantly reverse the gelling and convert the sample into a thin, flowing liquid; also recorded: disruption of the gel into a freely flowing viscous liquid”. For the same compound, the “dynamic rheology response (G′, G″) of blood gel after supramolecule” value with human heparinized blood [2] was “liquid-like with G″>G′ over the frequency range”. Also, the “solubility (solvent)” value in series [3] was “soluble in water”. Also, in series [4], the “dynamic rheology behaviour as ω→0 (long time scales)” value is “G′ and G″ are observed to overlap, indicating the onset of gelation over long time scales”; the dynamic rheology response entry is on record as “viscous liquid”. Further, in series [5] (28.6 mM cyclodextrin), the zero-shear viscosity is about 0.01 Pa·s. Moreover, in series [5], the “viscosity drop on addition of cyclodextrin” value is given as “million-fold” and the “reversal of gelation of vesicles by hm-chitosan” value was “reverse the gelation of vesicles by hm-chitosan”.

`OC[C@H]1O[C@@H]2O[C@H]3[C@H](O)[C@@H](O)[C@@H](O[C@H]4[C@H](O)[C@@H](O)[C@@H](O[C@H]5[C@H](O)[C@@H](O)[C@@H](O[C@H]6[C@H](O)[C@@H](O)[C@@H](O[C@H]7[C@H](O)[C@@H](O)[C@@H](O[C@H]8[C@H](O)[C@@H](O)[C@@H](O[C@H]1[C@H](O)[C@H]2O)O[C@@H]8CO)O[C@@H]7CO)O[C@@H]6CO)O[C@@H]5CO)O[C@@H]4CO)O[C@@H]3CO` [β-CD, β-cyclodextrin]: the “solubility (solvent)” value in series [3] was “more soluble in ethyl alcohol”.

In the case of `OC[C@H]1O[C@@H]2O[C@H]3[C@H](O)[C@@H](O)[C@@H](O[C@H]4[C@H](O)[C@@H](O)[C@@H](O[C@H]5[C@H](O)[C@@H](O)[C@@H](O[C@H]6[C@H](O)[C@@H](O)[C@@H](O[C@H]7[C@H](O)[C@@H](O)[C@@H](O[C@H]8[C@H](O)[C@@H](O)[C@@H](O[C@H]9[C@H](O)[C@@H](O)[C@@H](O[C@H]1[C@H](O)[C@H]2O)O[C@@H]9CO)O[C@@H]8CO)O[C@@H]7CO)O[C@@H]6CO)O[C@@H]5CO)O[C@@H]4CO)O[C@@H]3CO` [γ-CD, γ-cyclodextrin], the “solubility (solvent)” value in series [3] is listed as “soluble in water”. In addition, in series [4], the “dynamic rheology behaviour as ω→0 (long time scales)” value is “G′ and G″ are not observed to overlap, indicating that the sample does not become more gel-like as t→∞”; the dynamic rheology response entry is reported as “viscous liquid”. The zero-shear viscosity in series [5] (0 mM cyclodextrin, in Pa·s) was ~10^1. In series [5] (28.6 mM cyclodextrin), the “viscosity drop relative to the drop caused by α-CD” value is on record as “thousand-fold lower”. In addition, in series [5], the “viscosity drop on addition of cyclodextrin” value is listed as “thousand-fold” and the “reversal of gelation of vesicles by hm-chitosan” value was “reverse the gelation of vesicles by hm-chitosan”.
